Here are results for 18 compounds from patent US10259810B2, “N-sulfonylated pyrazolo[3,4-b]pyridin-6-carboxamides and method of use” (AbbVie S.à.r.l., priority 2015, dated 2019).

Read-outs that look alike come from different tables or passages of the source.

The assay deals with T1, ΔF508-CFTR (Homo sapiens, UniProt P13569, DEL508-508).
T1 construct: host or cells: CFBE41o-, doxycycline-inducible
Nature of the assay: CFTR cell surface levels using HRP-tagged ΔF508-CFTR expressing CFBE cells, in the presence of a co-corrector. The assay is classed as cell-based. The text has this: Measuring CFTR Cell Surface Levels Using HRP-Tagged ΔF508-CFTR Expressing CFBE Cells
The HRP-tagged ΔF508-CFTR cell assay measures the expression of CFTR-ΔF508 at the plasma membrane. CFTR-ΔF508 has a folding defect leading to absence of protein at the plasma membrane. This assay is used to evaluate the capacity of compounds to increase the expression of CFTR-ΔF508 at the plasma membrane. The CFTR-ΔF508 is tagged with HRP (horse radish peroxidase enzyme) within the ECL4 (Extracellular loop 4) of CFTR (Phuan, P.-W. et al. Synergy-based small-molecule screen using a human lung epithelial cell line yields ΔF508-CFTR correctors that augment VX-809 maximal efficacy. Mol. Pharmacol. 86, 42-51 (2014)). When HRP-tagged ΔF508-CFTR is present at the plasma membrane, the HRP enzyme activity can be measured. The amount of CFTR-ΔF508 that can be rescued to the plasma membrane is correlated with the amount of functional enzyme that can be measured.
There are several ways to measure the capacity of compounds to rescue CFTR-ΔF508 to the plasma membrane; either compounds are evaluated on their own and the impact on plasma membrane levels is measured or compounds are evaluated in combination with a co-corrector, i.e. a compound that rescues CFTR-ΔF508 to the plasma membrane but rescue can be enhanced by addition of compounds due to a complementary mode of action.
Activity of Compounds in Combination with Co-Corrector:
For this purpose doxycycline-inducible ΔF508-CFTR-HRP expressing CFBE4lo− cells (obtained from Gergely Lukacs, McGill University) were maintained in MEM (Minimum Essential Medium, Gibco; 31095) supplemented with 10% fetal bovine serum (Hyclone; SV30160.03) under puromycin (3 μg/mL) and G418 selection (0.2 mg/mL). For compound testing, cells were seeded at 4000 cells/well in white 384-well plates (Greiner; 781080) in 50 μL of medium containing 0.5 μg/mL doxycycline and incubated for 68 hours at 37° C., 5% CO2. On day four, 10 μL of test compounds diluted in PBS (phosphate buffered saline) were added to the plates at a final DMSO concentration of 0.1%. In order to measure compound synergy with a co-corrector, 3 μM co-corrector (3-[(2R,4R)-4-({[1-(2,2-difluoro-1,3-benzodioxol-5-yl)cyclopropyl]carbonyl}amino)-7-methoxy-3,4-dihydro-2H-chromen-2-yl]benzoic acid) was added along with test compounds. All compound plates contained negative controls (DMSO) and positive controls (3 μM co-corrector). Cell plates were incubated at 33° C., 5% CO2 for 20 hours. On day five, the cells were washed five times with phosphate-buffered saline, and HRP activity was assayed by the addition of 50 μL/well of HRP substrate (SuperSignal™ West Pico Chemiluminescent Substrate, Thermo Scientific; 34080). After incubation for 15 minutes in the dark, the chemiluminescence was measured using a plate reader (EnVision®, Perkin Elmer). Raw data were normalized to percentage activity values using the equation: 100×(Sample−Negative control)/(Positive control−Negative Control).

Where [1] appears, read: HRP-tagged ΔF508-CFTR CFBE cells, in the presence of 3 μM co-corrector.
Where [2] appears, read: HRP-tagged ΔF508-CFTR CFBE cells, in the presence of 3 μM co-corrector, read-out: EC50.

T1 sequence (P13569 with tags, fused parts or gaps DEL508-508): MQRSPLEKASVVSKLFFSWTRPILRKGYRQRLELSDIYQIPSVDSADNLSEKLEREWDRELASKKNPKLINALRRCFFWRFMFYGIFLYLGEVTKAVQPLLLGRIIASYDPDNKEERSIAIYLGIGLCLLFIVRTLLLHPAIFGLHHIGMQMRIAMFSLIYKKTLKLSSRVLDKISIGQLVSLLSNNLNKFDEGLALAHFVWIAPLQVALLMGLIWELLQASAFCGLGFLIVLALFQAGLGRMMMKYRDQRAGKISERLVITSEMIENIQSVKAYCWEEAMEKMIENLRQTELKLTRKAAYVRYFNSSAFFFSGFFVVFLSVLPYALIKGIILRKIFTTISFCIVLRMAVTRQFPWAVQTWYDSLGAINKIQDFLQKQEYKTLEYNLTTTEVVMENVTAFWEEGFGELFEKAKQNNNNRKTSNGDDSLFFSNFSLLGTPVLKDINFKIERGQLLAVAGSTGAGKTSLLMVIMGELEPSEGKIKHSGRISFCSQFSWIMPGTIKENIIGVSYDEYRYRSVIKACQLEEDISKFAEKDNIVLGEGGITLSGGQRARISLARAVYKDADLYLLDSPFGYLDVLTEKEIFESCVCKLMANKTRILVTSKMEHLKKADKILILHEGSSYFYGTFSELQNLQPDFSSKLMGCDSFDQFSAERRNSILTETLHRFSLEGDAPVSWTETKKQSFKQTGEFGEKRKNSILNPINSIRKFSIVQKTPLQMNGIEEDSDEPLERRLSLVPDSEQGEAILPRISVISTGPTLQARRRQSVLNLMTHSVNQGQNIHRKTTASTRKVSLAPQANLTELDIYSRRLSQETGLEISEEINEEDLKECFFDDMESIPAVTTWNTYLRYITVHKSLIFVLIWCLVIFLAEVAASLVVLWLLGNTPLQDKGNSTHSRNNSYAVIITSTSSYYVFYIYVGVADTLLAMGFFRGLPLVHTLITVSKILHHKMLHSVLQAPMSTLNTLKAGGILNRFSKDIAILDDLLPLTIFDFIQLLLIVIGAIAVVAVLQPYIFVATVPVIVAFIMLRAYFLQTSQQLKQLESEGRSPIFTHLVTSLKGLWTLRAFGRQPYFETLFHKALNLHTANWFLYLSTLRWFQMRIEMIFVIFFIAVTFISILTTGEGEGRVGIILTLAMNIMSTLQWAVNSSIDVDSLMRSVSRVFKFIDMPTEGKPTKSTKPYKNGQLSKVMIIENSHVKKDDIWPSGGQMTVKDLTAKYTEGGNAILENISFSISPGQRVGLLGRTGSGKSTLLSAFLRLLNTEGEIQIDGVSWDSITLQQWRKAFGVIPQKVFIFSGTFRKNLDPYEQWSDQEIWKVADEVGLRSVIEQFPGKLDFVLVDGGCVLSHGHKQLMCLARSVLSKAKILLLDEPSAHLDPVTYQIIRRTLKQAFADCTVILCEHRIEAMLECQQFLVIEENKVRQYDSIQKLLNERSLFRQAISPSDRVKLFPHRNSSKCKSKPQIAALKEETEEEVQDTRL

For orientation: EC50 means the concentration that produces a half-maximal response. Consider `Cc1nn(-c2ccccc2)c2nc(C(=O)NS(C)(=O)=O)cc(-c3ccc(N4CCOCC4)cc3)c12` [Compound 1, N-(methanesulfonyl)-3-methyl-4-[4-(morpholin-4-yl)phenyl]-1-phenyl-1H-pyrazolo[3,4-b]pyridine-6-carboxamide], for which the “% Activation” value under setting [1] is given as 297.2%. The EC50 under setting [2] was found to be 1.19 µM.

As to `CCS(=O)(=O)NC(=O)c1cc(-c2ccc(N3CCOCC3)cc2)c2c(C)nn(-c3ccccc3)c2n1` [Compound 5, N-(ethanesulfonyl)-3-methyl-4-[4-(morpholin-4-yl)phenyl]-1-phenyl-1H-pyrazolo[3,4-b]pyridine-6-carboxamide], the “% Activation” value under setting [1] worked out at 362.75%. Besides, under setting [2], the EC50 came to 0.372 µM.

With `COCC1CCN(c2cc(C(=O)NS(=O)(=O)CCC(=O)OC)nc3c2c(C2CCC2)nn3-c2ccccc2)CC1` [Compound 288, methyl 3-({3-cyclobutyl-4-[4-(methoxymethyl)piperidin-1-yl]-1-phenyl-1H-pyrazolo[3,4-b]pyridine-6-carbonyl}sulfamoyl)propanoate], the “% Activation” value under setting [1] is given as 566.4%. In addition, the EC50 under setting [2] was 0.0743 µM.

In the case of `COCC1CCN(c2cc(C(=O)NS(=O)(=O)CCC(=O)O)nc3c2c(C2CCC2)nn3-c2ccccc2)CC1` [Compound 289, 3-({3-cyclobutyl-4-[4-(methoxymethyl)piperidin-1-yl]-1-phenyl-1H-pyrazolo[3,4-b]pyridine-6-carbonyl}sulfamoyl)propanoic Acid], the “% Activation” value under setting [1] is listed as 366.4%. In addition, under setting [2], the concentration for a half-maximal effect (EC50) was 3.33 µM.

As for `COCCN(C)c1cc(C(=O)NS(C)(=O)=O)nc2c1c(C(C)C)nn2-c1ccc(F)cc1` [Compound 301, 1-(4-fluorophenyl)-N-(methanesulfonyl)-4-[(2-methoxyethyl)(methyl)amino]-3-(propan-2-yl)-1H-pyrazolo[3,4-b]pyridine-6-carboxamide], the “% Activation” value under setting [1] came out at 376.6%. Further, the EC50 under setting [2] amounted to 1.14 µM.

On to `COCC1CCN(c2cc(C(=O)NS(=O)(=O)CCCN3CCC3)nc3c2c(C(C)C)nn3-c2ccc(F)cc2)CC1` [Compound 302, N-[3-(azetidin-1-yl)propane-1-sulfonyl]-1-(4-fluorophenyl)-4-[4-(methoxymethyl)piperidin-1-yl]-3-(propan-2-yl)-1H-pyrazolo[3,4-b]pyridine-6-carboxamide], for which the “% Activation” value under setting [1] is 401.45%. In addition, under setting [2], the EC50 is 1.8 µM.

Turning to `CC(C)c1nn(-c2ccc(F)cc2)c2nc(C(=O)NS(C)(=O)=O)cc(OCCC3CCCCN3C)c12` (stereo not drawn) [Compound 305, 1-(4-fluorophenyl)-N-(methanesulfonyl)-4-[2-(1-methylpiperidin-2-yl)ethoxy]-3-(propan-2-yl)-1H-pyrazolo[3,4-b]pyridine-6-carboxamide], the “% Activation” value under setting [1] was determined as 267%. Also, the EC50 under setting [2] is 2.44 µM.

In the case of `CC(=O)N1CCC(F)(COc2cc(C(=O)NS(C)(=O)=O)nc3c2c(C(C)C)nn3-c2ccc(F)cc2)CC1` [Compound 308, 4-[(1-acetyl-4-fluoropiperidin-4-yl)methoxy]-1-(4-fluorophenyl)-N-(methanesulfonyl)-3-(propan-2-yl)-1H-pyrazolo[3,4-b]pyridine-6-carboxamide], the “% Activation” value under setting [1] is on record as 328.85%. In addition, the EC50 under setting [2] came out at 2.49 µM.

`COCC(COC)Oc1cc(C(=O)NS(C)(=O)=O)nc2c1c(C(C)C)nn2-c1ccc(F)cc1` [Compound 311, 4-[(1,3-dimethoxypropan-2-yl)oxy]-1-(4-fluorophenyl)-N-(methanesulfonyl)-3-(propan-2-yl)-1H-pyrazolo[3,4-b]pyridine-6-carboxamide]: under setting [1], the “% Activation” value worked out at 241.35%. Besides, under setting [2], the EC50 was 1.06 µM.

On to `CC(C)c1nn(-c2ccc(F)cc2)c2nc(C(=O)NS(C)(=O)=O)cc(OCC3COCCO3)c12` (stereo not drawn) [Compound 312, 4-[(1,4-dioxan-2-yl)methoxy]-1-(4-fluorophenyl)-N-(methanesulfonyl)-3-(propan-2-yl)-1H-pyrazolo[3,4-b]pyridine-6-carboxamide], for which the “% Activation” value under setting [1] was determined as 291.5%. In addition, under setting [2], the EC50 is 1.88 µM.

`CC(C)c1nn(-c2ccc(F)cc2)c2nc(C(=O)NS(C)(=O)=O)cc(OCCOC3COC3)c12` [Compound 313, 1-(4-fluorophenyl)-N-(methanesulfonyl)-4-{2-[(oxetan-3-yl)oxy]ethoxy}-3-(propan-2-yl)-1H-pyrazolo[3,4-b]pyridine-6-carboxamide]: the “% Activation” value under setting [1] came to 319.75%. Also, under setting [2], the concentration for a half-maximal effect (EC50) was found to be 1.75 µM.

Consider `CS(=O)(=O)NC(=O)c1cc(OCCCN2CCCCC2)c2c(C3CCC3)nn(-c3ccccc3)c2n1` [Compound 314, 3-cyclobutyl-N-(methanesulfonyl)-1-phenyl-4-[3-(piperidin-1-yl)propoxy]-1H-pyrazolo[3,4-b]pyridine-6-carboxamide], for which, under setting [1], the “% Activation” value came to 375.8%. Besides, the EC50 under setting [2] was found to be 0.693 µM.

Turning to `CC(=O)N1CCC(COc2cc(C(=O)NS(C)(=O)=O)nc3c2c(C(C)C)nn3-c2ccc(F)cc2)CC1` [Compound 321, 4-[(1-acetylpiperidin-4-yl)methoxy]-1-(4-fluorophenyl)-N-(methanesulfonyl)-3-(propan-2-yl)-1H-pyrazolo[3,4-b]pyridine-6-carboxamide], under setting [1], the “% Activation” value is 314.37%. For the same compound, the EC50 under setting [2] amounted to 0.497 µM.

Regarding `COCC(COC)Oc1cc(C(=O)NS(C)(=O)=O)nc2c1c(C1CCC1)nn2-c1ccccc1` [Compound 324, 3-cyclobutyl-4-[(1,3-dimethoxypropan-2-yl)oxy]-N-(methanesulfonyl)-1-phenyl-1H-pyrazolo[3,4-b]pyridine-6-carboxamide], the “% Activation” value under setting [1] was 259.7%. The EC50 under setting [2] was 1.64 µM.

On to `CC(=O)N1CC[C@@H]2CN(c3cc(C(=O)NS(=O)(=O)CCCN4CCOCC4)nc4c3c(C3CCC3)nn4-c3ccccc3)CC[C@@H]21` [Compound 332, 4-[(3aR,7aS)-1-acetyloctahydro-5H-pyrrolo[3,2-c]pyridin-5-yl]-3-cyclobutyl-N-[3-(morpholin-4-yl)propane-1-sulfonyl]-1-phenyl-1H-pyrazolo[3,4-b]pyridine-6-carboxamide], for which the EC50 was found to be 0.624 µM. In addition, under setting [1], the “% Activation” value came out at 448.25%.

Consider `CC(C)c1nn(-c2ccc(F)cc2)c2nc(C(=O)NS(C)(=O)=O)cc(N3CCC4(CC3)CN(C)C(=O)O4)c12` [Compound 338, 1-(4-fluorophenyl)-N-(methanesulfonyl)-4-(3-methyl-2-oxo-1-oxa-3,8-diazaspiro[4.5]decan-8-yl)-3-(propan-2-yl)-1H-pyrazolo[3,4-b]pyridine-6-carboxamide], for which the “% Activation” value under setting [1] is recorded as 344.25%. Further, under setting [2], the EC50 was determined as 0.946 µM.

For the compound `CC(C)c1nn(-c2ccc(F)cc2)c2nc(C(=O)NS(C)(=O)=O)cc(N3CCC4(CC3)NC(=O)NC4=O)c12` [Compound 341, 4-(2,4-dioxo-1,3,8-triazaspiro[4.5]decan-8-yl)-1-(4-fluorophenyl)-N-(methanesulfonyl)-3-(propan-2-yl)-1H-pyrazolo[3,4-b]pyridine-6-carboxamide], under setting [1], the “% Activation” value was 165.4%. Also, the EC50 under setting [2] was determined as 3.33 µM.

In the case of `CCOCC1(F)CCN(c2cc(C(=O)NS(C)(=O)=O)nc3c2c(C(C)C)nn3-c2ccc(F)cc2)CC1` [Compound 342, 4-[4-(ethoxymethyl)-4-fluoropiperidin-1-yl]-1-(4-fluorophenyl)-N-(methanesulfonyl)-3-(propan-2-yl)-1H-pyrazolo[3,4-b]pyridine-6-carboxamide], the “% Activation” value under setting [1] is recorded as 336.5%. For the same compound, the EC50 under setting [2] is 0.207 µM.
